Experimental data: patent US5441875A, “Urea transporter polypeptide” (Brigham and Women's Hospital, priority 1993, dated 1995)
Read-outs that look alike come from different tables or passages of the source.

Legend:
[1] = target: T1, urea transporter polypeptide (Oryctolagus cuniculus, UniProt Q28614); assay: cell-based; conditions: for effect on urea uptake of replacing mannitol in the incubation solution: 100 mM replacing mannitol; for inhibition of urea transport by urea analogues: 150 mM analogue; for effect of cAMP analogues on urea transporter-facilitated urea transport: 30 minute preincubation, 1 mM per analogue
T1 sequence (Q28614 1-397): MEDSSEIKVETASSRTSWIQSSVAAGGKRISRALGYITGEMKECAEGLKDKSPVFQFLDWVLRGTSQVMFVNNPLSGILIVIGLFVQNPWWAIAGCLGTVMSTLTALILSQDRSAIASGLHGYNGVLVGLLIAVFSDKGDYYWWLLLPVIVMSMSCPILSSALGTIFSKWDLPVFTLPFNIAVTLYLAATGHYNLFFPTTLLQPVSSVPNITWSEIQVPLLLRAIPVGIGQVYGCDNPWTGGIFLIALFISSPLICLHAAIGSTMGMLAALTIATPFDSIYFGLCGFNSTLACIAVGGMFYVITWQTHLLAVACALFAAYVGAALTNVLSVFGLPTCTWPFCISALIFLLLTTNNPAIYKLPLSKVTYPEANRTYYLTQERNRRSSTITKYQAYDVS
Procedure: (§1) The rabbit kidney medulla mRNA that is size fractionated by the preparative agarose gel electrophoresis was analyzed by oocyte expression assay. Large, fully grown oocytes (stage 5 and 6) with a diameter of 1.2-1.3 mm were hand dissected from ovarian fragments of Xenopus laevis, treated with 2 mg/ml type 1A collagenase to remove follicular cells and incubated in Barth's solution (in mM: 88 NaCl; 0.82 MgSO4; 0.33 Ca (NO3)2; 0.41 CaCl2; 2.4 NaHCO3; 10 HEPES, pH 7.4; 200 mosmol). After 16-24 hours, oocytes were injected with about 50 nl of mRNA or water and incubated in Barth's solution with gentamicin at about 18° C. for another three days after which uptake of ^14 C-urea was measured.
(§2) Unlabelled urea was deionized by passing it through an ion exchange column (AG501-X8 (D), 20-50 Mesh, Bio Rad) immediately before use. The uptake solution consisted of 2 microcuries ^14 C-urea; 1 mM urea; 200 mM mannitol; […]; 1 mM MgCl2; 1 mM CaCl2; 10 mM HEPES; and 5 mM TRIS, unless otherwise specified. In all uptake experiments oocytes were pre-incubated in uptake solution minus urea for one hour. After completion of the uptake, oocytes were washed with ice-cold wash solution (uptake solution without the labelled urea), dissolved in 10% SDS and used for scintillation counting.
Urea transport in the mammalian kidney is generally considered to be passive, although there is some evidence for active ion coupled transport. In studies addressing ion dependencies, urea uptake was measured in oocytes injected with urea transporter cRNA, as described above in Example 1. In the incubation solution, however, mannitol was replaced by NaCl (100 mM), choline chloride (100 mM) or sodium acetate (100 mM).
To study the uptake inhibition by phloretin, phloretin (Sigma) was dissolved in ethanol at 0.5M and added to the uptake solution to give the desired final concentration of 0.35 mM and 0.70 mM. The concentration of ethanol was no more than 0.1%. Ethanol at the same concentration is added to uptake solution without phloretin. Following 15 min pre-incubation in phloretin, ^14 C-urea was added and urea flux was then measured during 90 seconds.
For inhibition studies using urea analogues, all analogues were deionized as described in Example 1 immediately before use. […] Chou and Knepper, 257 Am. J. Physiol. F359-365 (1989).
It is possible that facilitation of urea transport by vasopressin is the result of direct phosphorylation of the transporter or of recruitment of functional transporters from intracellular vesicle pools.

[2] = tested on: urea transport induced by rabbit kidney medulla poly(A)+ RNA; assay: 14C-urea uptake into Xenopus oocytes injected with poly(A)+ RNA from rabbit kidney medulla; format: cell-based; conditions: phloretin 0.25 mM, 14C-urea 50 mM
Procedure: Messenger RNA, fractionated as above, was collected in 0.6 ml fractions. In preliminary experiments, uptake of ^14 C-labelled urea (50 mM) was measured three days after injection at 5, 30 and 60 minute intervals. […] Phloretin at 0.25 mM inhibited the 30 minute uptake of urea by approximately 50%.

[3] = tested on: urea transport in UT1 cRNA-injected oocytes; assay: 14C-urea uptake into Xenopus oocytes injected with UT1 cRNA; format: cell-based, Xenopus laevis
Procedure: as §1, §2

[4] = tested on: water-injected control oocytes; conditions: not told, 1000 µM
Procedure: as §1, §2

[5] = target: T1, urea transporter polypeptide; assay: Two-microelectrode voltage clamp on urea transporter cRNA-injected oocytes; format: cell-based, rabbit; conditions: urea 1 and 100 mM; holding potential -60 mV
Procedure: Electrophysiological studies are in agreement with this finding. Electrophysiological measurements were made on oocytes 3-4 days after injection with urea transporter cRNA-injected oocytes using conventional two-microelectrode voltage clamp methods (Axoclamp-2A, Axon Instruments). Membrane current was measured in a standard bath of 96 mM NaCl; 2 mM KCl; 1.8 mM CaCl2; 1.0 mM MgCl2; and 5 mM HEPES, pH 7.4, at a holding potential of -60 mV.

[6] = read-out: inhibition of urea uptake

## CC(=O)O [sodium acetate]
[1]
  effect on urea uptake of replacing mannitol in the incubation solution: no effect

## CN(C)C(N)=O [1,1-dimethylurea]
[1]; 14C-urea 1 mM
  inhibition of urea transport by urea analogues: no significant effect

## O=C(CCc1ccc(O)cc1)c1c(O)cc(O)cc1O [phloretin]
[2]
  inhibition of the 30 minute uptake of urea: approximately 50%
[3]
  phloretin sensitivity of UT1-induced urea transport: not phloretin-sensitive
[1]; [6]
  inhibition at 350 µM: 48%
  inhibition at 700 µM: 78%
[1]; read-out: inhibition of urea uptake (phloretin-sensitivity of clone pool)
  inhibition at 350 µM: ~50%

## CNC(N)=O [N-methylurea]
[1]; 14C-urea 1 mM
  inhibition of urea transport by urea analogues: 38%

## CNC(=O)NC [1,3 dimethylurea, 1,3-dimethylurea]
[1]; 14C-urea 1 mM
  inhibition of urea transport by urea analogues: 65%

## Nc1ncnc2c1nc(Br)n2[C@@H]1O[C@@H]2COP(=O)(O)O[C@H]2[C@H]1O [8-bromo-cAMP]
[1]
  effect of cAMP analogues on urea transporter-facilitated urea transport: no effect

## CCCC(=O)Nc1ncnc2c1ncn2[C@@H]1O[C@@H]2COP(=O)(O)O[C@H]2[C@H]1OC(=O)CCC [dibutyryl cyclic-AMP]
[1]
  effect of cAMP analogues on urea transporter-facilitated urea transport: no effect

## C[N+](C)(C)CCO.[Cl-] [choline chloride]
[1]
  effect on urea uptake of replacing mannitol in the incubation solution: no effect

## NC(N)=S [Thiourea, thiourea]
[1]; 14C-urea 1 mM
  inhibition of urea transport by urea analogues: 38%

## NC(N)=O [urea]
[4]
  permeability of water-injected control oocytes for urea: 1.9 ×10⁻⁶ cm/s
[5]
  membrane current evoked by bath applied urea: did not evoke a significant current
[1]; 14C-urea 1 mM, between 10 and 30 minutes
  maximum uptake of 14C-urea: approximately 250 pmoles/oocyte
[1]; concentration range between 1 and 200 mM urea
  saturation of urea transporter polypeptide-mediated urea transport: no saturation
[1]; not told, 1000 µM
  urea permeability of urea transporter-injected oocytes: 45 ×10⁻⁶ cm/s

## [Cl-].[Na+] [NaCl]
[1]
  effect on urea uptake of replacing mannitol in the incubation solution: did not alter urea uptake

## Nc1ncnc2c1ncn2C1OC2COP(O)(=S)OC2C1O (stereo not shown) [Sp-cAMPS]
[1]
  effect of cAMP analogues on urea transporter-facilitated urea transport: no effect

## CC(N)=O [acetamide]
[1]; 14C-urea 1 mM
  inhibition of urea transport by urea analogues: no significant effect

B1: urea transporter: 397-amino acid residue membrane glycoprotein from rabbit kidney medulla (SEQ ID NO.: 2), expressed from UT2 cRNA (protein)
chain: T1 sequence (Q28614 1-397)
modifications: glycosylated
[1]; versus water-injected control oocytes
  increase of the permeability of oocytes to urea: 23 fold
